Biological target: T1, Zinc finger protein mex-5 (Caenorhabditis elegans, UniProt Q9XUB2)
T1 sequence (Q9XUB2 whole entry): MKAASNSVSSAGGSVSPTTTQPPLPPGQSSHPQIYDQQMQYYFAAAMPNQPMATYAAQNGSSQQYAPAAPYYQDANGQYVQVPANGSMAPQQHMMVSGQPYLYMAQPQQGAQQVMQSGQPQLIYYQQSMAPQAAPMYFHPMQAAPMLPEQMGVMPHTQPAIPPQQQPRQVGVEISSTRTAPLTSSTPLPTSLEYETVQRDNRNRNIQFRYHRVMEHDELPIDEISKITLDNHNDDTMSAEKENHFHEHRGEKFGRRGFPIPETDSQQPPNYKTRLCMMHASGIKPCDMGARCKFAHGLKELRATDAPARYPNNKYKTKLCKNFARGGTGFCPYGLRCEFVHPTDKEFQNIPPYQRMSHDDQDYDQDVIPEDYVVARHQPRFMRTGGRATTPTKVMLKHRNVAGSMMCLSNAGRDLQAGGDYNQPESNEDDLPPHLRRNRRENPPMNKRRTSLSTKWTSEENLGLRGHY
Assay: potency of MEX-5 RNA-binding blockers – biochemical, C. elegans, fluorescence polarization, dose response (AID 1960)

SMILES: C=CCN1C(=O)NC(=O)C(=CCC=Nc2ccccc2)C1=O [(5Z)-5-[(E)-3-phenylazanylprop-2-enylidene]-1-prop-2-enyl-1,3-diazinane-2,4,6-trione]
- EC50: > 300 µM

SMILES: Nc1c(-c2nc3ccccc3[nH]2)c(O)cn1-c1ccc(CC(=O)O)cc1 [MLS000565528]
- EC50: 1.59 µM

SMILES: O=C1C(=O)N(c2ncccn2)C(c2cccs2)C1C(=O)c1ccco1 (stereo unspecified) [3-(furan-2-carbonyl)-4-hydroxy-1-pyrimidin-2-yl-2-thiophen-2-yl-2H-pyrrol-5-one]
- EC50: 31.5 µM

SMILES: CCN(CC)CCNC=C1C(=O)NC(=O)N(Cc2ccccc2)C1=O [(5Z)-1-benzyl-5-[[2-(diethylamino)ethylamino]methylene]barbituric acid]
- EC50: > 300 µM

SMILES: CCOc1cc(C=C2C(=N)N3N=C(S(C)(=O)=O)SC3=NC2=O)ccc1OCCOc1cccc(OC)c1 [(6E)-6-[[3-ethoxy-4-[2-(3-methoxyphenoxy)ethoxy]phenyl]methylidene]-5-imino-2-methylsulfonyl-[1,3,4]thiadiazolo[3,2-a]pyrimidin-7-one]
- EC50: 221 µM

SMILES: COc1ccc(NC=C2C(=O)NC(=S)N(Cc3ccccc3)C2=O)c(OC)c1 [1-Benzyl-5-[1-(2,4-dimethoxy-phenylamino)-meth-(Z)-ylidene]-2-thioxo-dihydro-pyrimidine-4,6-dione]
- EC50: > 300 µM

SMILES: C=c1[nH]n(-c2cccc(C(=O)O)c2)c(=O)c1=CC=Cc1ccco1 [SMR000113614]
- EC50: 23.7 µM

SMILES: COc1cccc(C=NNC(=O)c2ccc(=O)[nH]n2)c1O [N'-[(E)-(5-methoxy-6-oxocyclohexa-2,4-dien-1-ylidene)methyl]-6-oxo-1H-pyridazine-3-carbohydrazide]
- EC50: 12.6 µM

SMILES: C/N=c1\ccc2nc3ccccc3n(C)c-2c1 [N,10-dimethyl-2-phenazin-10-iumamine;perchlorate]
- EC50: 14.8 µM

SMILES: C=CCOc1ccc(C2C(C(=O)c3ccco3)C(=O)C(=O)N2c2nnc(C)s2)cc1 (stereo unspecified) [3-(furan-2-carbonyl)-4-hydroxy-1-(5-methyl-1,3,4-thiadiazol-2-yl)-2-(4-prop-2-enoxyphenyl)-2H-pyrrol-5-one]
- EC50: > 300 µM

SMILES: N#CC1=C2CCOC[C@@H]2[C@@H](c2ccsc2)C(C#N)(C#N)C1=N [(8R,8aR)-6-amino-8-(3-thienyl)-1,3,8,8a-tetrahydroisochromene-5,7,7-tricarbonitrile]
- EC50: > 300 µM

SMILES: Cc1ccc(C2C3CN(C(C)C)CCC3=C(C#N)C(=N)C2(C#N)C#N)cc1 (stereo unspecified) [SMR000034220]
- EC50: 8.29 µM

SMILES: Cc1c(C(=O)O)cccc1-n1c(C)cc(CN=Nc2ccc([N+](=O)[O-])cn2)c1C
- EC50: 50.2 µM

SMILES: COc1ccc(C2C3=C(CC(C)(C)CC3=O)OC(=N)C2C#N)cc1OC (stereo unspecified) [2-amino-4-(3,4-dimethoxyphenyl)-5-keto-7,7-dimethyl-6,8-dihydro-4H-chromene-3-carbonitrile]
- EC50: > 300 µM

SMILES: Cc1cc(CN=Nc2ccc([N+](=O)[O-])cn2)c(C)n1-c1ccc(C(=O)O)cc1 [4-{2,5-dimethyl-3-[2-(5-nitro-2-pyridinyl)carbonohydrazonoyl]-1H-pyrrol-1-yl}benzoic acid]
- EC50: 111 µM

SMILES: COc1ccc(C2C(C(=O)c3ccco3)C(=O)C(=O)N2c2nnc(C)s2)cc1 (stereo unspecified) [3-(furan-2-carbonyl)-4-hydroxy-2-(4-methoxyphenyl)-1-(5-methyl-1,3,4-thiadiazol-2-yl)-2H-pyrrol-5-one]
- EC50: 216 µM

SMILES: C/N=C1/S/C(=C\c2ccc(N3CCCC3)c(F)c2)C(=O)N1C [(5Z)-5-(3-fluoro-4-pyrrolidino-benzylidene)-3-methyl-2-methylimino-thiazolidin-4-one]
- EC50: 8.89 µM

SMILES: O=C(NN=Cc1c(O)n(-c2ccccc2)c(=S)[nH]c1=O)c1ccc(O)cc1 [N'-[(1Z)-(4,6-dioxo-1-phenyl-2-thioxohexahydropyrimidin-5-yl)methylene]-4-hydroxybenzohydrazide]
- EC50: 63.7 µM

SMILES: COc1ccc(OC)c(C2C(C(=O)c3ccco3)C(=O)C(=O)N2CCN2CCOCC2)c1 (stereo unspecified) [2-(2,5-dimethoxyphenyl)-3-(furan-2-carbonyl)-4-hydroxy-1-(2-morpholin-4-ylethyl)-2H-pyrrol-5-one]
- EC50: > 300 µM

SMILES: O=C1N=C(N2C=CC(c3ccncc3)C=C2)C(=CN=NC(=O)c2ccccc2O)S1 [SMR000646350]
- EC50: 10.7 µM

SMILES: N#CC1C(=N)OC2=C(C(=O)CCC2)C1c1cc2c(cc1Cl)OCO2 (stereo unspecified) [MLS001183950]
- EC50: > 300 µM

SMILES: CC1(C)CC(=O)C2=C(C1)OC(=N)C(C#N)C2c1ccccc1OC(=O)N1CCOCC1 (stereo unspecified) [2-(2-amino-3-cyano-7,7-dimethyl-5-oxo-5,6,7,8-tetrahydro-4H-chromen-4-yl)phenyl morpholine-4-carboxylate]
- EC50: > 300 µM

SMILES: CCCCOc1c(Br)cc(CN=O)cc1OCC [3-bromo-4-butoxy-5-ethoxy-benzaldoxime]
- EC50: > 300 µM

SMILES: COc1ccc(C2C(C(=O)c3cccs3)C(=O)C(=O)N2c2nncs2)cc1 (stereo unspecified)
- EC50: 0.1 µM

SMILES: Cc1nnc(SC(=Cc2ccc(-c3ccc(Cl)cc3)o2)C(=O)O)[nH]1 [(E)-3-[5-(4-chlorophenyl)furan-2-yl]-2-[(5-methyl-1H-1,2,4-triazol-3-yl)sulfanyl]prop-2-enoic acid]
- EC50: 29.6 µM

SMILES: COc1ccc(N2C(=O)NC(=O)C(=Cc3cn(C)c4ccccc34)C2=O)cc1 [MLS001196573]
- EC50: 1.15 µM

SMILES: COc1cc(CN=Nc2[nH]c(=O)nnc2C)ccc1O [5-[2-[(E)-(3-methoxy-4-oxocyclohexa-2,5-dien-1-ylidene)methyl]hydrazinyl]-6-methyl-2H-1,2,4-triazin-3-one]
- EC50: 31.1 µM

SMILES: COc1ccc(C2CC(c3ccc(Br)s3)=Nc3ncnn32)cc1OC (stereo unspecified) [SMR000032927]
- EC50: 6.36 µM

SMILES: CSc1nnc(N2C(=O)C(=O)C(C(=O)c3ccco3)C2c2ccc(F)cc2)s1 (stereo unspecified) [2-(4-fluorophenyl)-3-(furan-2-carbonyl)-4-hydroxy-1-(5-methylsulfanyl-1,3,4-thiadiazol-2-yl)-2H-pyrrol-5-one]
- EC50: 82.8 µM

SMILES: CCN(CC)c1ccc(C=NC(C#N)C(=N)C#N)cc1 (stereo unspecified) [SMR000023871]
- EC50: 114 µM

SMILES: COc1cc(C2C3CN(C)CCC3=C(C#N)C(=N)C2(C#N)C#N)ccc1OC(C)C (stereo unspecified) [MLS000034945]
- EC50: 31.3 µM

SMILES: C=CC1=C(C(=O)O)N2C(=O)[C@@H](NC(=O)C(N=O)c3csc(N)n3)[C@H]2SC1 (stereo partly drawn) [(6R,7R)-7-[[2-(2-azanyl-1,3-thiazol-4-yl)-2-hydroxyimino-ethanoyl]amino]-3-ethenyl-8-oxidanylidene-5-thia-1-azabicyclo[4.2.0]oct-2-ene-2-carboxylic acid]
- EC50: 33.3 µM

SMILES: O=c1c2ccccc2nc(N=NCc2ccc(O)cc2)n1O [3-Hydroxy-2-{N'-[1-(4-hydroxy-phenyl)-meth-(E)-ylidene]-hydrazino}-3H-quinazolin-4-one]
- EC50: > 300 µM

SMILES: O=C(O)c1cc(-c2ccc(C=C3NC(=O)N(c4ccc(Cl)cc4)C3=O)o2)ccc1Cl [2-chloranyl-5-[5-[(Z)-[1-(4-chlorophenyl)-2,5-bis(oxidanylidene)imidazolidin-4-ylidene]methyl]furan-2-yl]benzoic acid]
- EC50: 38.6 µM

SMILES: Cc1ccc(N=CCC(=O)c2sc(-c3ccccc3)nc2C)cc1 [(E)-1-(4-methyl-2-phenyl-1,3-thiazol-5-yl)-3-(4-toluidino)-2-propen-1-one]
- EC50: > 300 µM

SMILES: Cc1nnc(SC(=Cc2ccc(OCc3ccc(C(=O)O)cc3)cc2)C(=O)O)[nH]1 [4-[[4-[(E)-2-[(5-methyl-1H-1,2,4-triazol-3-yl)sulfanyl]-3-oxidanyl-3-oxidanylidene-prop-1-enyl]phenoxy]methyl]benzoic acid]
- EC50: 3.38 µM

SMILES: O=CC(C=Nc1ccccn1)c1nc2ccccc2o1 (stereo unspecified) [2-Benzooxazol-2-yl-3-(pyridin-2-ylamino)-propenal]
- EC50: > 300 µM

SMILES: CC1CCC2=C(C#N)C(=N)C(C#N)(C#N)C(c3cccs3)C2C1 (stereo unspecified) [2-amino-6-methyl-4-(2-thienyl)-4a,5,6,7-tetrahydro-4H-naphthalene-1,3,3-tricarbonitrile]
- EC50: 14.9 µM

SMILES: COc1cc(C2C3=C(CCCC3=O)OC(=N)C2C#N)cc(OC)c1OC(=O)N1CCOCC1 (stereo unspecified) [4-(2-amino-3-cyano-5-oxo-5,6,7,8-tetrahydro-4H-chromen-4-yl)-2,6-dimethoxyphenyl morpholine-4-carboxylate]
- EC50: > 300 µM

SMILES: CCN(CC)CCN1C(=O)C(=O)C(C(=O)c2cc3cccc(OC)c3o2)C1c1ccc(F)cc1 (stereo unspecified) [1-(2-Diethylamino-ethyl)-5-(4-fluoro-phenyl)-3-hydroxy-4-(7-methoxy-benzofuran-2-carbonyl)-1,5-dihydr o-pyrrol-2-one]
- EC50: > 300 µM

SMILES: O=C(O)c1cc(-c2ccc(CN=Nc3ccc([N+](=O)[O-])cn3)o2)ccc1Cl [2-chloro-5-[5-[[(5-nitropyridin-2-yl)hydrazinylidene]methyl]furan-2-yl]benzoic acid]
- EC50: 6.29 µM

SMILES: CC(C)(C)OC(=O)N1CCC2=C(C#N)C(=N)C(C#N)(C#N)[C@H](c3cccnc3)[C@H]2C1 [(8S,8aR)-6-amino-5,7,7-tricyano-8-(3-pyridinyl)-1,3,8,8a-tetrahydroisoquinoline-2-carboxylic acid tert-butyl ester]
- EC50: 54 µM

SMILES: CS(=O)(=O)Nc1nc2n(n1)C(c1ccccc1)CC(c1ccc(Br)cc1)=N2 (stereo unspecified)
- EC50: 6.39 µM

SMILES: O=NCc1cccn1-c1cccc(C(=O)O)c1 [3-[2-(hydroximinomethyl)pyrrol-1-yl]benzoic acid]
- EC50: > 300 µM

SMILES: CCOc1ccc(N2C(=O)NC(=O)C(=Cc3c[nH]c4ccccc34)C2=O)cc1 [(5E)-1-(4-ethoxyphenyl)-5-(1H-indol-3-ylmethylidene)-1,3-diazinane-2,4,6-trione]
- EC50: 47 µM

SMILES: CCOc1cc(C=C2SC(Nc3ccc(CC)cc3)=NC2=O)ccc1OCC(=O)O [2-[2-ethoxy-4-[(Z)-[2-(4-ethylanilino)-4-oxo-1,3-thiazol-5-ylidene]methyl]phenoxy]acetic acid]
- EC50: 149 µM
